What was measured:
Soybean = experiment: Inhibition of the decomposition of chlorophyll in soybean leaf segments; settings: 4 days dark
Protocol: The active agent to be tested was dissolved in distilled water to form a 200 ppm solution, and leaf segments of the plants under examination, weighing 200 mg, were floated on the surface of the solution for 4 days in the dark. Thereafter chlorphyll was extracted from the leaf segments with methanol.
To determine the starting state, chlorophyll was extracted with methanol from untreated leaf segments weighing 200 mg. In the control test the leaf segments, weighing 200 mg, were floated on the surface of distilled water for 4 days in the dark, and then chlorophyll was extracted from the leaf segments with methanol.
The chlorophyll concentration was determined by measuring the extinction of the extracts at 665 mμ.

Bean = experiment: Stimulation of photosynthesis, 14CO2 incorporation, bean leaf discs (Example 20); settings: foliar, 2 hours
Protocol: The specific radioactivities of the stock solutions were determined by liquid scintillation. In the control test untreated leaf discs were exposed to labelled carbon, dioxide, and the amount of carbon dioxide incorporated under such conditions was regarded as standard.

Alfalfa = Alfalfa field tests 1979, Boly (Example 26); type: in vivo
From the text: The effects of the compositions according to the invention exerted on the crop yield (green yield), crude protein content, protein nitrogen content and C/N ratio of alfalfa, observed under field conditions in the tests performed in 1979 at the Agricultural Combinate of Boly, Hungary, are listed in Table 17.

N=C(N)N.N=C(N)N.Oc1nnc(O)c2ccccc12 [1,4-dihydroxyphthalazine diguanidine salt]
Chlorophyll (Soybean; 200 ppm, control 3.5): 5.4 mg | activation at 200 ppm (Soybean; Glycine max, foliar, 96 h, read-out: Promotion): 54% | activation at 200 ppm (Bean): 4% | P2O5 content (Alfalfa; control 8.3): 10.3 % of dry substance | Crude protein content (Alfalfa; control 21.3): 25.4 % of dry substance | Green yield (Alfalfa; control 120): 146 q/ha | Crude protein content, increase (Alfalfa; in vivo): 19.4% | Green yield, increase (Alfalfa; in vivo): 22.3% | P2O5 content, increase (Alfalfa; in vivo): 24.6%

Source: patent US4620871A (priority 1980, dated 1986)
